Measured values published in patent publication US20250057958A1, “CYTOTOXICITY TARGETING CHIMERAS FOR CCR2-EXPRESSING CELLS” (GLAXOSMITHKLINE INTELLECTUAL PROPERTY DEVELOPMENT LIMITED, priority 2022, published 2025).

Columns and labels:
[1] = system: CCR2 expressing cells (CD11b+Ly6c+Hi monocytes); assay: In vivo depletion assay (flow cytometry of peripheral blood); design: species or system human CCR2 (hCCR2) knock-in mice; conditions: IV bolus 0.1 mpk compound + 10 mpk anti-cotinine antibody (mouse IgG2a Fc), 48 hours
Method: (§1) Human CCR2 (hCCR2) knock-in mice (C57 background) were dosed intravenously with a PBS solution containing a compound of Formula (I) to measure depletion of CCR2 expressing cells in peripheral blood. Peripheral blood from IV dosed mice was also analyzed to determine PK properties of the compounds of Formula (I).
Formulations preparation: On the day of experiment, the stock solution of the compound of Formula (I) was removed from storage at −20° C. and thawed at room temperature. Anti-cotinine antibody having a heavy chain sequence of SEQ ID NO: 13 and a light chain sequence of SEQ ID NO: 14 (rabbit variable region sequence with mouse IgG2a Fc domain), if required was removed from storage at −80° C. and thawed at room temperature. Antibody vials were immediately transferred into wet ice after thawing. Compounds of Formula (I) were further diluted in DMSO as per experimental requirements.
Formulation composition: The formulation composition was Saline: DMSO: PBS. Saline was added based on the quantity required and then stock solution of the compound of Formula (1) prepared in DMSO, followed by addition of antibody in PBS. Formulations were incubated at room temperature for 30 minutes before administration to the mouse. DMSO was used at 1 to 2% (v/v) in the final formulation.
(§2) Administration to Animal: Solution formulation of antibody and compound of Formula (I) was injected (bolus injection) to the restrained mouse in the right/left lateral tail vein. Animals were dosed with 0.1 milligram per kilogram (mpk) of the compound of Formula (I) and 10 mpk of the anti-cotinine antibody.
(§3) Terminal bleeding at end of experiment (48 hr): Approximately 250 μL of blood in K2EDTA tube and approximately 250 μL of blood in SST (serum separation tube) was collected from each mouse through retro-orbital bleeding under deep isoflurane anesthesia. After bleeding, each mouse was sacrificed by cervical dislocation. The blood distribution at termination was determined as follows: • For PK: 50 μL of K2EDTA blood was transferred to another tube for PK • Flow cytometry: Remaining blood (˜200 μL) was used for flow cytometry analysis. • For serum collection: serum separator tubes (BD) were centrifuged at 4° C., 5000 rpm for 15 minutes. Approximately 100 μL serum was separated and stored at −80° C. for further usage. • Blood drug concentration: Samples collected at the various timepoints (0.25 hr, 2 hr, 24 and 48 hr) were analyzed to determine blood drug concentration.
Flow cytometry analysis: CCR2 depletion in peripheral blood was determined by flow cytometry. Briefly, peripheral blood was collected from all animals at the end of study termination and processed. […]
Percent depletion of CD11b+Ly6c+Hi cells and CCR2 expression for the different treatment groups was determined. […]

[2] = target: T1, CHOK1 cells engineered to overexpress human CCR2 (Homo sapiens, UniProt P41597); assay: Antibody dependent cellular cytotoxicity (ADCC) reporter assay; type: cell-based; conditions: with anti-cotinine antibody (SEQ ID NO: 11/12, human IgG1 Fc S239D/I332E); Jurkat FcγRIIIa NFAT-luciferase reporter cells; 12-18 hours; average if more than one run; read-out: ADCC Reporter Assay pEC50 (converted)
T1 construct: expressed in transfected cells; host or cells: CHOK1 cells
Method: An antibody dependent cellular cytoxocity reporter assay was conducted using the following four assay components: (i) ARM compound of Formula (I) targeting CCR2 (concentrations ranging from 1 pM to 10 μM) (ii) anti-cotinine antibody having a heavy chain sequence of SEQ ID NO: 11 and a light chain sequence of SEQ ID NO: 12 (rabbit variable region with human IgG1 Fc domain containing a DE mutation (S239D/I332E)) (concentrations ranging from 0.01 μg/mL to 200 μg/mL); (iii) target cells: CHOK1 cells engineered to overexpress either human CCR2 (typically 1000-20,000 cells perwell) and (iv) reporter cells: Jurkat cells engineered to express FcγRIIIa with the reporter gene luciferase under the control of the NFAT promoter (typically 3000-75,000 cells per well). Reagents were combined in a final volume of 20 μL in a 384—well tissue culture treated plate. All four assay components were incubated together for about 12-18 hours. Thereafter, BioGlo Detection reagent (Promega) was added to the wells to lyse the cells and provide a substrate for the luciferase reporter protein. Luminescence signal was measured on a microplate reader and signal:background was calculated by dividing the signal of a test well by the signal obtained when no ARM compound of Formula (I) was added. EC50 calculations were done using Graphpad Prism Software, specifically a nonlinear regression curve fit (Y=Bottom+(Top−Bottom)/(1+10 ^((Log EC50−X)*HillSlope))).
ARMs compounds of Formula (I) of the invention were tested for ADCC activity in the above assay in or more experimental runs and the results are shown in Table 3 below. Potency of the compounds of Formula (I) of the invention is reported as a pEC50 value. The pEC50 value is the negative log of the EC50 value, wherein the EC50 value is the half maximal effective concentration measured in molar (M). For compounds tested in more than one experimental run, the pEC50 value is reported as an average.

[3] = Blood drug concentration analysis (PK) in the in vivo depletion assay; design: species or system human CCR2 (hCCR2) knock-in mice; conditions: human CCR2 (hCCR2) knock-in, C57 background, mouse, whole blood, LC-MS/MS, IV bolus 0.1 mpk compound + 10 mpk anti-cotinine antibody, 48 hours post-dose, read-out: Exposure of Compound of Formula (I) 48 hours post-dose
Method: as §1, §2
Collection of Blood for PK: Blood was collected at time points 0.25 hour, 2 hours, and […] following administration (50 μL/time point) through retro-orbital bleeding under mild isoflurane anesthesia.
as §3
Blood drug concentration analysis: Drug concentration in blood samples was determined by an LC-MS/MS-based bioanalytical method developed at Syngene. Samples were analyzed on Q-Trap, API-5500 LC-MS/MS system coupled with Exion UHPLC system from SCIEX, USA operated in multiple reaction monitoring mode employing electrospray ionization technique in positive polarity. Analyte and internal standard peaks were resolved on Synergi Polar, 75×2.0 mm, 4 μcolumn using mobile phase 10 mM Ammonium acetate in Milli-Q water as phase A and 0.1% Formic acid in acetonitrile as Phase B. Gradient elution was performed with initial composition 95% Phase A at 0.0 min, holding it for 0.2 minutes, ramping to 5% by 1.0 minute, keeping the same for next 0.5 minutes and coming back to 95% by 1.6 minutes. The total run time was 2 minutes.
Working dilutions for calibration curve and quality control standards were prepared by serially diluting 20 mg/mL stock solution with DMSO. Spiked concentrations for calibration curve in the whole blood ranged from 1 ng/mL to 1000 ng/mL. […]

[4] = target: human alpha1 nicotinic acetylcholine (nACh) receptor (Homo sapiens, UniProt P02708+Q07001); assay: Nicotinic acetylcholine receptor antagonism assay (IONFlux automated patch clamp); type: cell-based
human alpha1 nicotinic acetylcholine (nACh) receptor, sequence (P02708 21-457): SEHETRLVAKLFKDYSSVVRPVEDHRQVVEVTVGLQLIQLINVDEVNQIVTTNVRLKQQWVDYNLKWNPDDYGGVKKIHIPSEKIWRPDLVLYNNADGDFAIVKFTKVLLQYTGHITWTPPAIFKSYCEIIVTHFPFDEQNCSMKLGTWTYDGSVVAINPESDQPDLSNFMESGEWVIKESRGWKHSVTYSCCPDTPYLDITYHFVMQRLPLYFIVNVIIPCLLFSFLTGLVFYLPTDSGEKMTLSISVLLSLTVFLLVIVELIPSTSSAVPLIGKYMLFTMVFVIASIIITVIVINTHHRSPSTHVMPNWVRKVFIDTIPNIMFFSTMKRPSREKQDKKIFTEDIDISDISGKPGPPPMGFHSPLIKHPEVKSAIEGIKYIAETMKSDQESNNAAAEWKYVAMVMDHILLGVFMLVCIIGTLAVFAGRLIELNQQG
human alpha1 nicotinic acetylcholine (nACh) receptor, sequence (P11230 24-501 partner): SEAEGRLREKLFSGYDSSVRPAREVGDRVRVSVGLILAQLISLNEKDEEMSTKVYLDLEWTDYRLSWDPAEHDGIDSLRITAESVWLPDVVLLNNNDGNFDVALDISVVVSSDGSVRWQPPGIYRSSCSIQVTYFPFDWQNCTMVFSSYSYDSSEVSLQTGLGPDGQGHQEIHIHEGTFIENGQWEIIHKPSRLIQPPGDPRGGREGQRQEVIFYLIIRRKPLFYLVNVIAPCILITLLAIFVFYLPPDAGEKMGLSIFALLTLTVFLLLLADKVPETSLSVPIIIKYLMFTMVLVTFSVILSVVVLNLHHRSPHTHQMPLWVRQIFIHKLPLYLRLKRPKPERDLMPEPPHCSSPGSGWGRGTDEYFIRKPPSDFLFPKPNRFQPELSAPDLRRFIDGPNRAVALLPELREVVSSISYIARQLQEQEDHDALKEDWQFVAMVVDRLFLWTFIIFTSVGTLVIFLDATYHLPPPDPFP
human alpha1 nicotinic acetylcholine (nACh) receptor, sequence (Q07001 22-517): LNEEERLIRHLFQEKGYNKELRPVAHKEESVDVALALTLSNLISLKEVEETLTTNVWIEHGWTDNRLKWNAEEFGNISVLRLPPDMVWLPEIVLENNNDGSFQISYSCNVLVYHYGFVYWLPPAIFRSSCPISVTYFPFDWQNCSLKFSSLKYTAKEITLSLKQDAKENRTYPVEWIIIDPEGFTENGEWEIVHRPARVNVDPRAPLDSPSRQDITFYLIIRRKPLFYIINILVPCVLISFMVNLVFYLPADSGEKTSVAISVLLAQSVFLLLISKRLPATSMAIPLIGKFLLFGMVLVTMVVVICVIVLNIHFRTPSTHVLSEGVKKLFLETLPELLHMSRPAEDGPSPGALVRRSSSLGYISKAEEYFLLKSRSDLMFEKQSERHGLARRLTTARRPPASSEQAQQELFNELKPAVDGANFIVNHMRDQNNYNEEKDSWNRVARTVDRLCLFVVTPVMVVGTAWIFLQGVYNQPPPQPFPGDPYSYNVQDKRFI
Excerpt: Cells expressing human alpha1 nicotinic acetylcholine (nACh) receptor (nAChR) were washed and dissociated using Trypsin containing buffer. Cells were then washed and seeded at a density of 3-5 million cells/mL and allowed to grow for 3 days. […] The receptor was then stimulated via addition of acetylcholine (ACh) and activation of the receptor was monitored via the IONFlux automated patch clamp system. IonFlux Data Analyzer software was utilized to perform leak subtraction and measure (min) peak current amplitude.
Data processing: (1) Current values recorded for vehicle only applications in individual traps/patterns were subtracted from corresponding current amplitude values for control, test article and control+test article. (2) Control response was calculated as % of the average response of the 3rd out of total 3 ACh (10 mM) applications alone. In rare situations, if the 3rd ACh response was obscured due to technical artifacts, the 2nd and/or 1st ACh (10 mM) application was considered as control. The peak current amplitude generated in the presence of each test article concentration was then used to calculate the % inhibition as compared to control response (10 mM ACh alone). These estimates were further corrected for vehicle response and run down corrected by normalizing with time matched control responses (10 mM ACh alone). The corrected percentages were then fit with a non-linear function in GraphPad Prism 6 (or later versions) to determine the IC50.
Exclusion criteria: (i) any n's with poor recording quality, (ii) control current amplitude <500 pA or (iii) significant outliers, as determined by the Grubbs' test.
ARMs compounds of Formula (I) of the invention were tested for antagonism of the nAChR in the above assay in […] experimental runs and the results are shown in Table 5 below. Antagonistic activity of the compounds of Formula (I) of the invention is reported as an IC50 value (half maximal inhibitory concentration) and the maximum percentage antagonism observed at the highest concentration of compound of Formula (I) tested, as indicated in Table 5. For compounds tested in more than one experimental run, the IC50 value is reported as an average.

SMILES	% Depletion of CCR2 expressing cells [1] [%]	EC50 [2] [nM]	concentration at 48 h [3] [ng/mL]	Emax at 100 µM ([4]; maximum percentage antagonism at highest concentration tested, 100 μM, read-out: Maximum Response (%)) [%]	IC50 ([4]; nAChR antagonism, stimulated with ACh, average if more than one run) [µM]
CC(=O)N[C@@H]1C[C@H](NC(C)(C)C)CC[C@@H]1N1CC[C@H](Nc2nc(CCCNC(=O)[C@H]3CC[C@H](NC(=O)CCCO[C@H]4CC[C@H](OCCNC(=O)[C@H]5CC(=O)N(C)[C@@H]5c5cccnc5)CC4)CC3)nc3ccc(C(F)(F)F)cc23)C1=O [Example 1, (2S,3S)—N-(2-(((1R,4S)-4-(4-(((1S,4R)-4-((3-(4-(((S)-1-((1S,2R,4R)-2-Acetamido-4-(tert-butylamino)cyclohexyl)-2-oxopyrrolidin-3-yl)amino)-6-(trifluoromethyl)quinazolin-2-yl)propyl)carbamoyl)cyclohexyl)amino)-4-oxobutoxy)cyclohexyl)oxy)ethyl)-1-methyl-5-oxo-2-(pyridin-3-yl)pyrrolidine-3-carboxamide]	89.18	0.158	42.9		
CC(=O)N[C@@H]1C[C@H](NC(C)(C)C)CC[C@@H]1N1CC[C@H](Nc2nc(COCCNC(=O)[C@H]3CC[C@H](NC(=O)CCCO[C@H]4CC[C@H](OCCNC(=O)[C@H]5CC(=O)N(C)[C@@H]5c5cccnc5)CC4)CC3)nc3ccc(C(F)(F)F)cc23)C1=O [Example 14, (2S,3S)-N-(2-(((1R,4S)-4-(4-(((1S,4R)-4-((2-((4-(((S)-1-((1S,2R,4R)-2-acetamido-4-(tert-butylamino)cyclohexyl)-2-oxopyrrolidin-3-yl)amino)-6-(trifluoromethyl)quinazolin-2-yl)methoxy)ethyl)carbamoyl)cyclohexyl)amino)-4-oxobutoxy)cyclohexyl)oxy)ethyl)-1-methyl-5-oxo-2-(pyridin-3-yl)pyrrolidine-3-carboxamide]		0.501		54	> 100
